From patent US20240409534A1, “CRYSTAL FORM OF METHYLPYRAZOLE-SUBSTITUTED PYRIDOIMIDAZOLE COMPOUND AND PREPARATION METHOD THEREFOR” (priority 2021, published 2024)

Assay: Pharmacokinetic study in rats at 100 mpk (Experimental Embodiment 4)
Format: in vivo
Conditions: male SD rats; for AUC(0-inf) / AUC(0-t) / Cmax / Tmax / half-life: Sprague-Dawley, rat, plasma, po, 100 mg/kg
Method: SD rats (overnight fasting, 7 to 11 weeks old)
The compound of the present disclosure or its crystal form of 5% DMSO/10% Kolliphor HS15/85% (0.2% (v/v) Tween80 aqueous solution) at 10 mg/mL was administered by gavage to male SD rats (overnight fasting, 7 to 11 weeks old) at a dose of 100 mg/kg. At 0.25, 0.5, 1.0, 2.0, 4.0, 8.0 and 24 h after administration, approximately 0.2 mL of blood was collected from the jugular vein of the animals in all three groups, placed in an anticoagulant tube added with EDTA-K2, and centrifuged for the separation of plasma. Plasma concentrations were determined by LC-MS/MS method, and relevant pharmacokinetic parameters were calculated using WinNonlin™ Version 6.3 (Pharsight, Mountain View, CA) pharmacokinetic software with non-compartmental model linear-log trapezoidal method.

CS(=O)(=O)O.Cn1cc(-c2ccn3c(-c4cc(NS(C)(=O)=O)nc(-c5ccc(F)cc5F)c4)cnc3c2)cn1 gave an AUC(0-inf) of 179 µM·h, an AUC(0-t) of 179 µM·h and a Cmax of 22.1 µM. The Tmax was 2.5 h, the half-life was 1.85 h and the Tlast was 24.0 h.

Work on Cl.Cn1cc(-c2ccn3c(-c4cc(NS(C)(=O)=O)nc(-c5ccc(F)cc5F)c4)cnc3c2)cn1 yielded an AUC(0-inf) of 32.3 µM·h, an AUC(0-t) of 32.3 µM·h and a Cmax of 8.78 µM. The Tmax was 0.5 h, the half-life was 2.57 h and the Tlast was 24.0 h.

Work on Cn1cc(-c2ccn3c(-c4cc(NS(C)(=O)=O)nc(-c5ccc(F)cc5F)c4)cnc3c2)cn1 [Compound represented by formula (I)] yielded an AUC(0-inf) of 12.6 µM·h, an AUC(0-t) of 12.6 µM·h and a Cmax of 3.75 µM. It also gave a Tmax of 0.5 h, a half-life of 2.25 h and a Tlast of 24.0 h.
